Like-named read-outs stand apart in the source and are kept apart here.
How the values were obtained:
[1] = biological target: pfDHOD (Plasmodium falciparum (isolate 3D7), UniProt Q08210); assay: DHOD enzyme inhibition, colorimetric DCIP reduction or direct orotic acid assay; format: biochemical
Description: Reactions are initiated by addition of enzyme to a final concentration in the range of about 5 nM to about 50 nM while maintaining the temperature of a circulating water bath at 25° C.
Assay solutions were prepared as discussed above, except that DCIP is not present and the solution is depleted of oxygen by the inclusion of an oxidase/reductase system, such as, 0.1 mg/ml of glucose oxidase, 0.02 mg/ml catalase and 50 mM glucose. The data obtained was fitted to equation 1, to determine the IC50 values of the representative compounds.

[2] = tested on: P. falciparum 3D7; assay: 3H-hypoxanthine uptake in P. falciparum-infected erythrocytes; format: cell-based, Plasmodium falciparum; conditions: Plasmodium falciparum, 3D7, Erythrocyte, read-out: EC50 P. falciparum 3D7

Chain of pfDHOD (Q08210 24-569 limits assumed): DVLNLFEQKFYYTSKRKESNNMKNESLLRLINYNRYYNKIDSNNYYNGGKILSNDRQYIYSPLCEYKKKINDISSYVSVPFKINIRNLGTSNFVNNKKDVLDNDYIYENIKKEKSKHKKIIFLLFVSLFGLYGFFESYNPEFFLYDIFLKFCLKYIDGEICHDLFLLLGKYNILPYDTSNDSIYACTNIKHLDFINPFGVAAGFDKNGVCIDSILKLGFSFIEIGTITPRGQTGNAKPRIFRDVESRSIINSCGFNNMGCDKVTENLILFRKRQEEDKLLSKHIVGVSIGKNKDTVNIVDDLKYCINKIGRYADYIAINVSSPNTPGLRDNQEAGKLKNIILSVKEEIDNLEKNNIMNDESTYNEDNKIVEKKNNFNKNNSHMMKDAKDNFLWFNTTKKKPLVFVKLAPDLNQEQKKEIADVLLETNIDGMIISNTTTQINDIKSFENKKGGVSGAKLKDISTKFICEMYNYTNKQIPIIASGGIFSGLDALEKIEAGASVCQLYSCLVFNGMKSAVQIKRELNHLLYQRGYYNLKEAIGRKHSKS

For `Cc1cc(Nc2ccc(Cl)c(F)c2)n2ncnc2n1`, the melting point was 285 °C.

`Cc1cc(Nc2ccc(C(F)(F)F)cc2)n2nc(C(F)(F)F)nc2n1` [drawing 329] showed an IC50 [1] of 35 nM and an EC50 [2] of 73 nM.

Molecule `Cc1cc(Nc2ccc3c(c2)CCCC3)n2ccnc2n1` [Example 53, 7-Methyl-N-(5,6,7,8-tetrahydronaphthalen-2-yl)imidazo[1,2-a]pyrimidin-5-amine] has a melting point of 264 to 266 °C.

In the case of `Cc1cc(Nc2ccc(S(F)(F)(F)(F)F)cc2)n2ncnc2n1`, the IC50 [1] is reported as 160 nM and the EC50 ([2]; 3D7 strain) is reported as 18000 nM.

With `Cc1cc(Nc2ccc(S(F)(F)(F)(F)F)cc2)n2nc(C)nc2n1` the IC50 [1] was 510 nM and the EC50 ([2]; 3D7 strain) was 420 nM.

In the case of `CCC(F)(F)c1nc2nc(C)cc(Nc3ccc(S(F)(F)(F)(F)F)cc3)n2n1`, the EC50 [2] is reported as 550 nM.

Molecule `Cc1cc(NC2Cc3cc(F)c(F)cc3C2)n2ncnc2n1` has an IC50 [1] of 1000 nM and an EC50 ([2]; 3D7 strain) of 1500 nM.

Work on `Cc1cc(Nc2ccc3sccc3c2)n2ncnc2n1` yielded an IC50 [1] of 90 nM and an EC50 ([2]; 3D7 strain) of 70 nM.

Molecule `COc1nc2nc(C)cc(Nc3cccc(Cl)c3)n2n1` has an EC50 ([2]; 3D7 strain) of 1000 nM.

Work on `CCc1nc2nc(C)cc(Nc3ccc(S(F)(F)(F)(F)F)cc3)n2n1` yielded an EC50 ([2]; 3D7 strain) of 100 nM.

With `CCC(F)(F)c1nc2nc(C)cc(Nc3ccc(C(F)(F)F)cc3)n2n1` the IC50 [1] was 190 nM and the EC50 [2] was 45 nM.

Molecule `COc1cc2c(cc1OC)CC(Nc1cc(C)nc3ncnn13)C2` has an IC50 [1] of 4620 nM and an EC50 [2] of 7700 nM.

`Cc1cc(Nc2ccc(C(F)(F)F)c(F)c2)n2ccnc2n1` [Example 51, N-(3-fluoro-4-(trifluoromethyl)phenyl)-7-methylimidazo[1,2-a]pyrimidin-5-amine] showed a melting point of 302 to 304 °C.

Molecule `Cc1cc(Nc2ccc(S(F)(F)(F)(F)F)cc2)n2nc(C(F)(F)F)nc2n1` has a melting point of 178 to 180 °C.

`CCc1c(C)nc2ncnn2c1Nc1ccc(OC(F)(F)F)cc1` showed an EC50 ([2]; 3D7 strain) of over 10000 nM.

Work on `Cc1cc(Nc2ccc3c(c2)CCC3)n2ccnc2n1` [Example 54, N-(2,3-dihydro-1H-inden-5-yl)-7-methylimidazo[1,2-a]pyrimidin-5-amine] yielded a melting point of 255 to 257 °C.

With `CC(C)c1ccc(Nc2c3c(nc4ncnn24)CCC3)cc1` the IC50 [1] was 250 nM and the EC50 ([2]; 3D7 strain) was 1800 nM.

For `FC(F)(F)c1ccc(Nc2cc(C(F)(F)F)nc3ncnn23)cc1`, the IC50 [1] was 1700 nM and the EC50 ([2]; 3D7 strain) was over 10000 nM.

Work on `Cc1cc(Nc2cc(F)c(C(F)(F)F)c(F)c2)n2ncnc2n1` yielded an IC50 [1] of 190 nM and an EC50 ([2]; 3D7 strain) of 240 nM.

With `Cc1cc(NC2CCc3ccccc3C2)n2nc(C(F)(F)F)nc2n1` (stereo not shown) the IC50 [1] was 1200 nM.

`Cc1cc(Nc2ccc(F)cc2)n2nc(C(F)(F)F)nc2n1` gave an IC50 [1] of 740 nM and an EC50 ([2]; 3D7 strain) of 8500 nM.

With `Cc1cc(Nc2ccc(S(F)(F)(F)(F)F)cc2)n2nc(C3CC3)nc2n1` the EC50 ([2]; 3D7 strain) was 500 nM.

With `Cc1cc(NC2Cc3cc(Cl)c(Cl)cc3C2)n2ncnc2n1` the IC50 [1] was 1200 nM and the EC50 ([2]; 3D7 strain) was over 5000 nM.

Work on `Cc1cc(Nc2ccc(S(F)(F)(F)(F)F)cc2)n2ccnc2n1` yielded an EC50 ([2]; 3D7 strain) of 600 nM.

In the case of `COc1nc2nc(C)cc(Nc3ccc(S(F)(F)(F)(F)F)cc3)n2n1`, the IC50 [1] is reported as 42 nM and the EC50 ([2]; 3D7 strain) is reported as 64 nM.

Work on `Cc1cc(NC2CCc3ccccc3C2)n2ncnc2n1` (stereo not shown) yielded an IC50 [1] of 500 nM and an EC50 [2] of 1800 nM.

Work on `Brc1ccc(Nc2c3c(nc4ncnn24)CCCC3)cc1` yielded an IC50 [1] of 2120 nM and an EC50 ([2]; 3D7 strain) of 9900 nM.

In the case of `Cc1cc(Nc2ccc3c(c2)CCCC3)n2nc(C(F)(F)F)nc2n1`, the IC50 [1] is reported as 43 nM.

Molecule `Cc1cc(Nc2ccc(C(F)(F)F)c(F)c2)n2ccnc2n1` [drawing 333] has an IC50 [1] of 140 nM and an EC50 ([2]; 3D7 strain) of 600 nM.

Work on `Cc1cc(Nc2ccc3c(c2)CCCC3)n2ncnc2n1` [drawing 335] yielded an IC50 [1] of 100 nM and an EC50 ([2]; 3D7 strain) of 300 nM.

Work on `Cc1cc(Nc2ccc(Cl)c(F)c2)n2nc(C(F)(F)F)nc2n1` yielded an IC50 [1] of 520 nM and an EC50 ([2]; 3D7 strain) of 250 nM.

Source: patent US9238653B2, “Antimalarial agents that are inhibitors of dihydroorotate dehydrogenase” (BOARD OF REGENTS, THE UNIVERSITY OF TEXAS SYSTEM, priority 2009, dated 2016)
